Reference: the CheMixHub ionic liquid set

Assay: xn = mol fraction of the nth substance listed
Conditions: 100 kPa

CCCC[n+]1ccn(C)c1.[I-] + [I-].[Li+] + O
viscosity [mPa·s]
Conditions | x1 = 0.05, x2 = 0.05 | x1 = 0.4, x2 = 0.05
198.25 K | – | 1.3e+08
198.65 K | 15000 | –
203.85 K | 6900 | 1.32e+07
208.75 K | 3700 | –
209.15 K | – | 2900000
213.95 K | 1900 | 490000
218.85 K | 1600 | 180000
224.05 K | 1200 | 68000
228.55 K | – | 29000
228.95 K | 810 | –
233.05 K | 470 | –
234.15 K | – | 15000
236.45 K | 320 | –
238.25 K | – | 8000
241.25 K | 220 | –
243.85 K | – | 3700
246.15 K | 150 | –
248.75 K | 11 | –
249.15 K | – | 2500
253.95 K | 9.7 | 1600
259.25 K | – | 1000
259.65 K | 7.7 | –
263.4 K | 6.1 | –
264.1 K | – | 600
268.6 K | – | 440
268.9 K | 5.2 | –
273 K | – | 280
274 K | 4.5 | –
278.6 K | 4.5 | –
279.1 K | – | 180
283.55 K | 3.9 | 120
288.45 K | 3.6 | –
289.15 K | – | 82
293.65 K | 3.1 | 65
298.55 K | 2.6 | 41

CC[n+]1ccn(C)c1.O=S(=O)([N-]S(=O)(=O)C(F)(F)F)C(F)(F)F + c1ccccc1
Conditions | viscosity [mPa·s]
298.15 K, x2 = 0.135 | 25.2
298.15 K, x2 = 0.339 | 15.64
318.15 K, x2 = 0.471 | 6.8
328.15 K, x2 = 0 | 13.68
328.15 K, x2 = 0.339 | 7.26
